Results published in US20050222418A1, “Novel tyloindicines and related processes, pharmaceutical compositions and methods” (priority 2002, published 2005).

How the values were obtained:
[1] = tested on: NF-κB mediated transcription; experiment: Firefly luciferase reporter assay in HepG2 cells; format: cell-based, human; conditions: HepG2 cells transfected with pBIIX-luc, TNFa stimulation
Procedure: HepG2 cells were transiently transfected with firefly luciferase reporter vectors pMyc-TA-luc, pE2F-TAO-luc, pAP1-luc, pCRE-luc, or pBIIX-luc (containing two tandemly repeated NF-kB binding sites), respectively, along with internal control vector phRL-luc which is a promoterless renilla luciferase reporter vector. The day after transfection, cells were pretreated with increasing concentrations of 3500 for 1 h, then cells were stimulated with serum for 24 h, or TPA, forskolin or TNFa for 6 h Firefly and renilla uciferase activities were measured using Promega's dual-luciferase assay kit Data presented is firefly luciferase activity.
HepG2 cells were plated at a density of 2×10^4 per well (48-well plate) and transfected with 0.2 μg of firefly luciferase reporter vector pMyc-TA-luc, pE2F-TA-luc, pAP1-luc, pCRE-luc, or pBIIX-luc (containing two tandemly repeated NF-κB binding sites) respectively, along with internal control vector promoter-less renilla luciferase reporter vector phRL (Promega), using FuGENE 6™ transfection reagent according to the manufacturer's instructions. Cell extracts were prepared and luciferase activity was measured using a Dual-luciferase (firefly and renilla luciferase) assay kit according to the manufacturer's instructions.

[2] = tested on: KB cells and its drug resistant cells; experiment: Cross resistance studies in drug resistant cell lines; format: cell-based, human; conditions: cells resistant to VP-16, VCR, CPT or DOX
Source text: (§1) FIG. 1 illustrates the following referred to in the Examples herein: • “A. Chemical structure” provides the structural formulae for (+)-(S)-tylophorine (also referred to herein as compound “III-2” and DCB-3500); DCB-3501; “compound II-3a of FIG. 15”; and, in FIGS. 18-22, as […]); DCB-3502 (also referred to herein as “compound II-2); and DCB-3503 (also referred to herein as “NSC 716802”; “compound II-3b” of FIG. 15; and “ZH-152”). • “Table 1, B and C” provides EC50 and LD50 values for use of DCB-3500, DCB-3501, DCB-3502, and DCB-3503 against KB and HepG2 cancer cell lines resistant to various anticancer drugs, including VP-16 (etoposide), VCR (vincristine), CPT (camptothecin), and DOX (doxorubicin). • “Table 2 A, and B, and Table 3” illustrate that KB and HepG2 cancer cell lines are inhibited by the compounds of the instant invention. […] At the end of treatment, cells were washed, resuspended in PBS and stained with propidium iodide containing Rnase A for flow cytometric analysis. Data were analyzed using Modfit software.
FIG. 18 describes cross resistance studies in KB cell lines using DCB-3503.
(§2) Cells (1×10^4/well) were plated in 24-well plates. After 24 h, cells were treated with drugs for three generation times, then fixed and stained with 0.5% methylene blue in 50% ethanol for 2 h, followed by washing with tap water to remove excess color. Plates were dried and then resuspended in 1% sarkosyl, rotated at room temperature for 3 h. Cell growth was quantitated from the amount of methylene blue absorbed to the cells as measured by a spectrophotometer (Molecular Dynamics) at 595 nm. All experiments were performed in triplicate wells and were repeated at least three times. (see FIG. 1, Table 1B and Table 1C).

HepG2 cells = experiment: Cell cycle analysis (flow cytometry), HepG2; format: cell-based, human; conditions: 24 h treatment
Source text: as §1
(§3) KB and HepG2 cells were treated for 24 h with increasing concentrations of DCB-3500 and DCB-3503. At the end of treatment, cells were trypsinized, and the resulting cell suspensions were centrifuged at 1000 rpm for 5 min. The cells were fixed overnight in 70% ethanol at 4° C., centrifuged at 1000 rpm for 5 min, the pellets were washed twice with ice-cold PBS. Cell pellets were then resuspended in 0.5 ml PBS containing 50 μg/ml propidium iodide (Sigma-Aldrich) and 100 μg/ml RNase A (Sigma-Aldrich), incubated at 37° C. for 30 min, and then analyzed by FACScan using Cell Quest software (Becton Dickinson Labware, Franklin Lakes, N.J.). Data were analyzed using Modfit LT version 3.1 software (Verity Software House, Topsham, Me.) for cell cycle profile. (FIG. 1, Table 3)

KB cells = experiment: Cell cycle analysis (flow cytometry), KB; format: cell-based, human; conditions: 24 h treatment
Source text: as §1, §3

[3] = tested on: human cell-line tumor panel; experiment: NCI human cell-line tumor panel (DTP screen); format: cell-based; conditions: for antitumor activity in NCI in vitro screen: sixty-panel in vitro screen against human-derived tumors; for LC50 for several melanoma and lung cancer cell lines versus the other cell lines: DTP panel; for ranking by average concentration required for total growth inhibition (TGI): screen of 33,744 compounds, fifty-four cell lines
Source text: The ranking system was based on the average concentration required to yield a total growth inhibition (TGI) in the numbers of cell lines of the screen (54 for tylo F and tylo G). […] In fact, for many cell lines, the data were off scale; designated as <10^−10 M.

HepG2 (hepatocarcinoma) = experiment: In vitro cell culture growth inhibition, HepG2; format: cell-based, human
Procedure: (§4) Compound II-3 (NSC-716802) was tested in in vitro cell culture studies.
as §2

[4] = tested on: KB (head and neck cancer); experiment: In vitro cell culture growth inhibition, KB; format: cell-based, human
Procedure: as §4, §2

[5] = Toxicity studies in C57BL/6 mice; format: in vivo
Source text: FIG. 21 illustrates toxicity studies of DCB-3503 in C57BL/6 mice.

SK-MEL-2 = experiment: In vitro cell culture growth inhibition, SK-MEL-2; format: cell-based, human
Procedure: as §4, §2

HepG2 tumor = HepG2 tumor growth inhibition in nude mice; format: in vivo; conditions: 10 mg/kg ip once daily for 5 days; for tumor growth inhibition: HepG2 tumor-bearing nude mice
Source text: FIG. 22 illustrates toxicity and tumor growth inhibition studies using DCB-3503.
Four-week-old male NCR-nude mice were obtained from Taconic, and acclimated to laboratory conditions 1 week before tumor implantation. Human HepG2 tumor xenografts were established by injecting subcutaneously 2×10^6 HepG2 cells. […] Tumor weight was estimated by using the equation: Length of tumor×(wide of tumor/2)^2. (FIG. 1(a))

KB and HepG2 cells = experiment: Clonogenic assay; format: cell-based, human; conditions: 24 h exposure, colonies counted after 8 generations
Procedure: FIG. 19 illustrates the effect of DCB-3503 (ZH-152) in clonogenic assays. As depicted, cells were seeded at 5×10^4 per well, then DCB-3503 was added at concentrations ⅓, 1× and 3× the IG50. After a 24 h treatment, the cells were recounted and seeded into a fresh 6 well plate at 200 cells per well. After 8 generations of time the colonies were stained with methylene blue and counted. The cloning efficiency for HepG2 was 10% and for KB was 94%. Both cell lines were exposed to DCB-3503 with the concentration indicated for 24 h. The loss of clonegenic efficiency of cells post drug treatment is shown. […] This supports the previous observation using a different procedure.
They were then grown in the absence of the drug. After eight generations, the colonies were stained and counted.
Cells (5×10^4/well) were plated in 6-well plates. After 24 h, cells were treated with drugs for an additional 24 h. Cells were then trypsinized, counted, and cell viability was determined by trypan blue staining, 200 trypan blue negative cells were plated in triplicate in 6-well plates and grown for eight to ten generation times, then fixed and stained with 0.5% methylene blue in 50% ethanol for 1 h, after plates were washed and dried, the colonies were counted. (FIG. 1, Table 1C).

COc1cc2c3c(c4cc(OC)c(OC)cc4c2cc1OC)CN1CCCC1C3 (stereo in doubt) [DCB-3500, (+)-(S)-tylophorine]
activity against NF-κB mediated transcription [1]: potent activity
cross-resistance with conventional anticancer drugs [2]: no cross-resistance
effect on cell cycle progression (S phase) (HepG2 cells): not in HepG2 cells
effect on cell cycle progression (S phase) (KB cells): induce S phase accumulation

COc1cc2c3c(c4cc(OC)c(OC)cc4c2cc1OC)[C@@H](O)[C@@H]1CCCN1C3 [DCB-3501]
antitumor activity in NCI in vitro screen [3]: extraordinary antitumor activity
cross-resistance with conventional anticancer drugs [2]: no cross-resistance

COc1cc2c(cc1OC)-c1cc(OC)c(OC)cc1[C@H]1CN3CCCC3C=C21 (stereo partly drawn) [II-2, (S)-2,3,6,7-Tetramethoxy-8b,9,10,11,12,12a-hexahydro-9a-aza-cyclopenta[b]-triphenylene]
antitumor activity in NCI in vitro screen [3]: active
antitumor activity in NCI in vitro screen ([3]; listed as NSC-717335): potent antitumor activity
potency relative to compound II-3 (times more) (HepG2 (hepatocarcinoma); HepG2 cell growth in culture): 3 to 5
activity against NF-κB mediated transcription [1]: potent activity
cross-resistance with conventional anticancer drugs [2]: no cross-resistance
potency relative to compound II-3 (times more) ([4]; KB cell growth in culture): 3 to 5

COc1cc2c3c(c4cc(OC)c(OC)cc4c2cc1OC)[C@H](O)[C@@H]1CCCN1C3 [II-3, (12S,13S)-2,3,6,7-Tetramethoxy-9,10,11,12,12a,13-hexahydro-9a-aza-cyclopenta[b]triphenylen-13-ol]
acute toxicity [5]: manageable
toxicity (dose causing weight loss) [5]: 10 mg/kg
antitumor activity in NCI in vitro screen [3]: active
antitumor activity in NCI in vitro screen ([3]; listed as 3503): extraordinary antitumor activity
antitumor activity in NCI in vitro screen ([3]; listed as NSC-716802): potent antitumor activity
GI50 (HepG2 (hepatocarcinoma); HepG2): 60 nM
activity against NF-κB mediated transcription [1]: potent activity
GI50 (SK-MEL-2): 160 nM
cross-resistance with conventional anticancer drugs [2]: sensitive
cross-resistance with conventional anticancer drugs ([2]; listed as 3503): no cross-resistance
cross-resistance with conventional anticancer drugs ([2]; listed as ZH-152): still sensitive
effect on cell cycle progression (S phase) (HepG2 cells): inhibition at targets that are responsible for S-phase progression
effect on cell cycle progression (S phase) (HepG2 cells; listed as 3503): not in HepG2 cells
effect on cell cycle progression (S phase) (HepG2 cells; listed as DCB-3503): slows down the cell progress in S-phase
weight loss (HepG2 tumor; HepG2 tumor-bearing mice): without significant weight loss
tumor growth inhibition (HepG2 tumor; 10 mg/kg): profound antitumor effect
tumor growth inhibition (HepG2 tumor; listed as DCB-3503, 10 mg/kg): potent inhibitory activity
loss of clonogenic efficiency, HepG2 versus KB (KB and HepG2 cells): more sensitive
loss of clonogenic efficiency, HepG2 versus KB (KB and HepG2 cells; listed as DCB-3503): HepG2 is much more sensitive than KB cells
effect on cell cycle progression (S phase) (KB cells): inhibition at targets that are responsible for S-phase progression
effect on cell cycle progression (S phase) (KB cells; listed as 3503): induce S phase accumulation
effect on cell cycle progression (S phase) (KB cells; listed as DCB-3503): slows down the cell progress in S-phase
GI50 ([4]; KB): 200 nM

COc1ccc(C2=C[C@]3(O)CCCN3C[C@@H]2c2ccc(OC)c(OC)c2)cc1 [tylo F, tyloindicine F]
LC50 for several melanoma and lung cancer cell lines versus the other cell lines [3]: two orders of magnitude less
ranking by average concentration required for total growth inhibition (TGI) [3]: most potent anticancer agents examined

COc1cc2c(cc1OC)-c1cc(OC)c(OC)cc1[C@H]1CN3CCC[C@@]3(O)C=C21 [tylo G, tyloindicine G]
LC50 for several melanoma and lung cancer cell lines versus the other cell lines [3]: two orders of magnitude less
ranking by average concentration required for total growth inhibition (TGI) [3]: most potent anticancer agents examined

COc1cc2c(cc1OC)[C@H]1CN3CCC[C@H]3C=C1c1ccc(OC)c(O)c1-2 [tylo H, tyloindicine H]
antitumor activity in NCI in vitro screen [3]: active

COc1ccc(C2=CN3CCC[C@H]3C=C2c2cc(O)c(OC)c(OC)c2)cc1OC [tylo I, tyloindicine I]
antitumor activity in NCI in vitro screen [3]: active
